Source: patent US20170246144A1, “METHOD OF PREVENTING OR TREATING SPINOCEREBELLAR ATAXIA BY ADMINISTRATING SILIBININ” (National Taiwan Normal University, priority 2016, published 2017)

Tests used:
Assay type in all cases: cell-based, Human
[1] = test system: SH-SY5Y cells; test: JC-1 flow cytometry of mitochondria membrane potential (MMP)
Method: FIGS. 7A and 7B show the effects of SB on mitochondria membrane potential (MMP) in SH-SY5Y cells treated with MSG measured by JC-1 staining with a flow cytometry, wherein the control group (Ctrl) was untreated SH-SY5Y cells or the cells were treated with 100 mM MSG, 100 mM MSG+15 μM SB, 100 mM MSG+10 μM MK801 (MK) or 5 μM CCCP (disruptor of electron transport chain) for 12 hours. […] The results were shown as mean±SEM, n=3, *p<0.05, comparing to the MSG treatment group.
In the present embodiment, flow cytometry analysis was used to investigate whether silibinin can prevent the reduction of mitochondria membrane potential induced by glutamate in SH-SY5Y cells.
SH-SY5Y cells were seeded in 6 centimeter dish (1×10^6 cells/plate) for 24 hours, and then were pre-treated with 15 μM silibinin or 10 μM MK-801 for 1 hour followed by the treatment of 100 mM MSG for 12 hours. 5 μM carbonyl cyanide m-chlorophenylhydrazone (CCCP) was added to the positive control group to induce the depolarization of mitochondria membrane potential.
The treated cells were washed, centrifuged and collected, followed by PBS wash and JC-1 dye staining for 30 minutes. The stained cells were re-suspended using phosphate buffer solution and analyzed by a flow cytometry to obtain a 2-dimensional scatter plot. 10,000 cells were recorded for each experiment.

[2] = test system: SH-SY5Y cells; test: Annexin V-FITC/PI flow cytometry, apoptosis induced by MSG; conditions: 10 μM, 100 mM MSG, 24 hours
Method: 1×10^6 SH-SY5Y cells were treated with 100 mM MSG and 15 μM SB or 10 μM MK801 (MK) for 24 hours. Cells were stained with Annexin-V/PI and the apoptosis was measured with a flow cytometry.
In order to detect the effects of silibinin in inhibiting the apoptosis induced by glutamate in SH-SY5Y cells. The cells were measured by flow cytometry using Annexin V-FITC/propidium iodide (PI) double-labeling method.
SH-SY5Y cells were seeded in dish and were treated with 100 mM MSG in combination of 15 μM silibinin or 10 μM MK801 for 24 hours. The cells were then trypsinized and collected by centrifugation at 2,000 rpm for […] followed by double-staining with Annexin V-FITC and PI. Stained cells were analyzed with a flow cytometry (FACS Sorter, Becton, Dickinson and Company). 10,000 cells were recorded in each experiment.

[3] = test system: SH-SY5Y cells; test: Chemiluminescence (luminol) analysis of ROS induced by MSG
Method: FIG. 6A: The ROS productions in 1×10^6 SH-SY5Y cells were measured by chemiluminescence (CL) analysis and luminol measurement, wherein the control group (Ctrl) was untreated SH-SY5Y cells or the cells were treated with 100 mM MSG, 100 mM MSG+15 μM SB or 100 mM MSG+10 μM MK801 (MK) for 24 hours.
It is known that the cyto-toxicity induced by glutamate is associated with mitochondria dysfunction and the increased production of ROS in neuron. In this embodiment, chemiluminescence analysis was performed to measure the level of ROS in order to understand whether silibinin can inhibit the accumulation of ROS associated with glutamatergic excitotoxicity. […] The emission spectrum was blue light which can be monitored by chemiluminescence detector.
SH-SY5Y cells were seeded in dish (1×10^6 cells/plate) for 24 hours, and then were pre-treated with 15 μM silibinin or 10 μM MK-801 for 1 hour followed by the treatment of 100 mM glutamate for 24 hours. The cells were then washed and suspended in 60 μL RIPA on ice bath followed by stirring and centrifugation at 13,000 rpm for […] at 4° C. The obtained protein sample (200 μL, 20 μg) was mixed with 0.5 mL of 0.2 mM luminol (Sigma). After 5 minutes, chemiluminescence analysis system (CLD-110, Tohoku Electronic Inc. Co. Japan) was performed to determine its chemiluminescence.

Row | SMILES | MMP retained ([1]; 5 μM CCCP, positive control, no MSG) [%] | apoptosis (apoptotic cells) [2] [%] | extracellular ROS ([3]; 10 μM, 100 mM MSG, 24 hours) | inhibition at 10 µM ([3]; Homo sapiens, SH-SY5Y, 24 h, read-out: inhibition of intracellular ROS) [%] | MMP compared to Ctrl ([1]; 10 μM + 100 mM MSG) [%]
1 | N#CC(C#N)=NNc1cccc(Cl)c1 [CCCP, carbonyl cyanide m-chlorophenylhydrazone] | 18±10 |  |  |  | 
2 | C[C@]12N[C@H](Cc3ccccc31)c1ccccc12 [MK801] |  | 9.73 | unchanged | 80 | 90±5
